# Measured values: US10208056B2, “Condensed tricyclic compounds as protein kinase inhibitors” (FUNDACIÓN DEL SECTOR PÚBLICO ESTATAL CENTRO NACIONAL DE …, priority 2015, dated 2019)
# Where two headings read alike, the source gives them in different places.
# Experiments:
# intracellular HASPIN [1] = molecular target: T1, intracellular HASPIN (Homo sapiens (Human), UniProt Q8TF76); assay: Cellular HASPIN inhibition assay, western blot phospho H3T3 in synchronized SW620 cells; assay type: cell-based; conditions: semiquantitative, read-out: SW620 PH3(T3) in synchronized cells
# Method: Compounds can be screened for their ability to inhibit intracellular HASPIN using a western blot assay to detect phosphorylation of the HASPIN substrate H3T3 in synchronized cells. SW620 cells are plated at 200000 cells per well in 6-well plates (Solmeglas 13118) in RPMI media (Sigma-Aldrich R6504) supplemented with 10% foetal bovine serum (Sigma-Aldrich F7524), Penicillin/Streptomycin solution diluted 1:100 (Gibco 15070-063), and fungizone (Gibco, 15290-018), and allowed to adhere overnight at 37° C. in 5% CO2. Cells are then treated 16 h hours with Nocadazole (Sigma-Aldrich M1404) at 250 ng/ml to arrest them in mitosis. Proteasoma inhibitor MG132 (Sigma-Aldrich C2211) is added to a final concentration of […] to keep cells arrested in mitosis. Compounds are then added to the cell media from a final concentration of 10 μM in 10-fold serial dilutions and the cells are incubated at 37° C. in 5% CO2. After 1 hour and 30 minutes of treatment with the compounds, the cells are washed in PBS, lysed adding 100 μl of protein lysis buffer (62.5 mM Tris pH 6.8 al 6.25%, 2% SDS y 10% glycerol) incubation 10 minutes at room temperature and heating at 95° C. 10 min. The protein content of the lysates is determined by DC protein assay (Biorad, Ref. 5000116). The proteins are resolved by SDS-PAGE and transferred to nitrocellulose membrane (VWR International eurolab, Ref. 732-4007). The membranes are incubated overnight at 4° C. with antibodies specific for total H3 (Millipore #07424), phosphothreonine-3 H3 (Cell Signaling Ref. 14269) they are washed and then incubated with IRDye800 conjugated anti-mouse (Pierce/Cultek, 35521) and Alexa Fluor 680 goat anti-rabbit IgG secondary antibodies (Invitrogen, A21076). The bands are visualized and quantified using an Odyssey infrared imaging system (Li-Cor Biosciences). The percentage of phosphorylated H3 vs total H3 in synchronized cells is taken as hundred percent of phosphorylation. The percentage of H3 phosphorylation is finally plotted against concentration for each compound and EC50s for intracellular HASPIN inhibition are calculated using ActivityBase from IDBS.
# CDK8/Cyclin C = CDK8/Cyclin C (Homo sapiens (Human), UniProt P49336); assay: CDK8/Cyclin C binding assay (LanthaScreen Eu-Kinase Binding Assay); conditions: binding assay
# Method: The enzyme has been purchase from Invitrogen (PV4402) as a dimer of full-length His-tagged recombinant human proteins.
# Assays were performed in 384-well plates. The final read out was generated using an EnVision plate reader (Perkin-Elmer).
# intracellular CDK8 [2] = molecular target: T2, intracellular CDK8 (Homo sapiens (Human), UniProt P49336); assay: Cellular CDK8 inhibition assay, western blot P-STAT1 (S727) in IFN-γ treated SW620 cells; assay type: cell-based; conditions: SW620, IFNγ treated, semiquantitative; read-out: SW620 P-STAT1(S727) w IFNγ
# Method: Compounds can be screened for their ability to inhibit intracellular CDK8 using a western blot assay to detect phosphorylation of the CDK8 substrate STAT1 (S727) in IFN-γ treated cells. SW620 cells are plated at 1*10^6 cells per well in 6-well plates (Solmeglas 13118) in RPMI media (Sigma-Aldrich R6504) supplemented with 10% foetal bovine serum (Sigma-Aldrich F7524), Penicillin/Streptomycin solution diluted 1:100 (Gibco 15070-063), and fungizone (Gibco, 15290-018), and allowed to adhere overnight at 37° C. in 5% CO2. Compounds are then added to the cell media from a final concentration of 10 μM in 10-fold serial dilutions and the cells are incubated at 37° C. in 5% CO2. After 1 hour, IFNγ (R&D systems Ref. RYD-285-IF-100) is added to a final concentration of […]. After 3 hours of treatment with IFNγ, the cells are washed in PBS, lysed adding 100 μl of protein lysis buffer (62.5 mM Tris pH 6.8 al 6.25%, 2% SDS y 10% glycerol) incubation 10 minutes at room temperature and heating at 95° C. 10 min. The protein content of the lysates is determined by DC protein assay (Biorad, Ref. 5000116). The proteins are resolved by SDS-PAGE and transferred to nitrocellulose membrane (VWR International eurolab, Ref. 732-4007). The membranes are incubated overnight at 4° C. with antibodies specific for total STAT1 (BD Transduction laboratory #610115), phosphoserine-727 STAT1 (Cell Signaling Ref. 9177) they are washed and then incubated with IRDye800 conjugated anti-mouse (Pierce/Cultek, 35521) and Alexa Fluor 680 goat anti-rabbit IgG secondary antibodies (Invitrogen, A21076). The bands are visualized and quantified using an Odyssey infrared imaging system (Li-Cor Biosciences). The percentage of phosphorylated STAT1 vs total STAT1 in cells treated with IFNγ is taken as hundred percent of phosphorylation. The percentage of STAT1 phosphorylation is finally plotted against concentration for each compound and EC50s for intracellular CDK8 inhibition are calculated using ActivityBase from IDBS.
# Haspin kinase = Haspin kinase (Homo sapiens (Human), UniProt Q8TF76); assay: Haspin kinase assay (ADP-Glo); assay type: biochemical; conditions: ATP 150 μM
# In short: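 Compounds in 1:3 serial dilutions (1% DMSO final) were incubated 60 min at 30 °C with 20 nM recombinant GST-Haspin kinase domain and 150 μM ATP, without substrate, in pH 7.4 HEPES/MgCl2 buffer. ADP formed was read by luciferase luminescence and normalized to uninhibited enzyme to give % inhibition.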
# MV4:11 = assay: In vitro cell proliferation assay (CellTiter-Glo), MV4:11; assay type: cell-based; conditions: growth inhibition, semiquantitative, read-out: GI50 MV4:11
# Method: (§1) The in vitro potency of the compounds was measured by the cell proliferation assay CellTiter-Glo® Luminescent Cell Viability Assay, commercially available from Promega Corp., Madison, Wis. This homogeneous assay method is based on the recombinant expression of Coleoptera luciferase (U.S. Pat. No. 5,583,024; U.S. Pat. No. 5,674,713; U.S. Pat. No. 5,700,670) and determines the number of viable cells in culture based on quantitation of the ATP present, an indicator of metabolically active cells (Crouch et al (1993) J. Immunol. Meth. 160:81-88; U.S. Pat. No. 6,602,677). The CellTiterGlo® Assay was conducted […] it amenable to automated high throughput screening (HTS) (Cree et al (1995) AntiCancer Drugs 6:398-404).
# (§2) The homogeneous assay procedure involves adding the single reagent (CellTiter-Glo® Reagent) directly to cells cultured in serum-supplemented medium. Cell washing, removal of medium and multiple pipetting steps are not required. The system detects as few as 15 cells/well in a 96-well format in 10 minutes after adding reagent and mixing.
# (§3) The homogeneous “add-mix-measure” format results in cell lysis and generation of a luminescent signal proportional to the amount of ATP present. The amount of ATP is directly proportional to the number of cells present in culture. The CellTiter-Glo® Assay generates a “glow-type” luminescent signal, produced by the luciferase reaction, which has a half-life generally greater than five hours, depending on cell type and medium used. Viable cells are reflected in relative luminescence units (RLU). The substrate, Beetle Luciferin, is oxidatively decarboxylated by recombinant firefly luciferase with concomitant conversion of ATP to AMP and generation of photons. The extended half-life eliminates the need to use reagent injectors and provides flexibility for continuous or batch mode processing of multiple plates. This cell proliferation assay can be used with various multiwell formats, e.g. 96 or 384 well format. Data can be recorded by luminometer or CCD camera imaging device. The luminescence output is presented as relative light units (RLU), measured over time.
# intracellular HASPIN [3] = molecular target: T1, intracellular HASPIN; assay: Endogenous phosphoH3 inhibition in SW620 cells growing in 10% FBS; assay type: cell-based; conditions: semiquantitative, read-out: SW620 pH3(T3)
# Method: (§4) Endogenous phosphoH3 inhibition can be screened in cells growing in 10% FBS. Cells are plated as described before and treated for 8 h with compounds as described before. Then cells are lysated and phospho H3 evaluated as described before. The percentage of phosphorylated H3 vs total H3 in cells treated with DMSO is taken as hundred percent of phosphorylation. The percentage of H3 phosphorylation is finally plotted against concentration for each compound and EC50s for intracellular HASPIN inhibition are calculated using ActivityBase from IDBS.
# intracellular CDK8 [4] = molecular target: T2, intracellular CDK8; assay: Endogenous phosphoSTAT1 inhibition in SW620 cells growing in 10% FBS; assay type: cell-based; conditions: semiquantitative, read-out: SW620 P-STAT1(S727)
# Method: as §4, with “Endogenous phosphoSTAT1” for “Endogenous phosphoH3”, “phospho STAT1 is” for “phospho H3”, “phosphorylated STAT1” for “phosphorylated H3”, “total STAT1” for “total H3”, “of STAT1” for “of H3”, “intracellular CDK8” for “intracellular HASPIN”
# CDK19/Cyclin C = CDK19/Cyclin C (Homo sapiens (Human), UniProt Q9BWU1); assay: CDK19/Cyclin C binding assay (LanthaScreen Eu-Kinase Binding Assay); conditions: read-out: CDK19-CYCC IC50
# In short: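 LanthaScreen TR-FRET tracer-displacement format with 2 nM Cdk19-Cyclin C, 20 nM tracer and 2 nM Eu-anti-GST antibody. The buffer was 50 mM HEPES pH 7.5, 10 mM MgCl2, 1 mM EGTA, 0.01% Brij-35, with 1% DMSO final. Compounds were tested as 1:3 serial dilutions and incubated for 60 min at 25 °C.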
# MDA-MB-231 = assay: In vitro cell proliferation assay (CellTiter-Glo), MDA-MB-231; assay type: cell-based; conditions: growth inhibition, semiquantitative, read-out: GI50 MDA-MB-231
# Method: as §1, §2, §3
# Molm13 = assay: In vitro cell proliferation assay (CellTiter-Glo), Molm13; assay type: cell-based; conditions: growth inhibition, semiquantitative, read-out: GI50 Molm13
# Method: as §1, §2, §3
# SW620 = assay: In vitro cell proliferation assay (CellTiter-Glo), SW620; assay type: cell-based, human; conditions: growth inhibition, semiquantitative, read-out: GI50 SW620
# Method: as §1, §2, §3
# CDK19/Cyclin C, sequence (Q9BWU1 whole entry): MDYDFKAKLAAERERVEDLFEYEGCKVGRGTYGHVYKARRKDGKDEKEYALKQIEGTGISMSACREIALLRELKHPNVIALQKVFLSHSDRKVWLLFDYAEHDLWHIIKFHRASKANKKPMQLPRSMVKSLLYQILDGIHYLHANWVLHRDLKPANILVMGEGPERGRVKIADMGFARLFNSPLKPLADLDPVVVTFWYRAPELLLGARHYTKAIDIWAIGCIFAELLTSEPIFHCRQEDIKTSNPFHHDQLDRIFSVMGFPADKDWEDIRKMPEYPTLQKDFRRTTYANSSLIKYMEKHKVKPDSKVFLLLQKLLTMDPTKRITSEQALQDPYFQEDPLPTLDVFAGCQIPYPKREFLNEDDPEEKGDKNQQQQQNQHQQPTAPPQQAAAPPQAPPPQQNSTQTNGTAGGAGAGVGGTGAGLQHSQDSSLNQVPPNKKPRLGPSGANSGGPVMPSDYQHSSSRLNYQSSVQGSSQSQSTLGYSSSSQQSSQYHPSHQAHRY
# CDK19/Cyclin C, sequence (P24863 whole entry partner): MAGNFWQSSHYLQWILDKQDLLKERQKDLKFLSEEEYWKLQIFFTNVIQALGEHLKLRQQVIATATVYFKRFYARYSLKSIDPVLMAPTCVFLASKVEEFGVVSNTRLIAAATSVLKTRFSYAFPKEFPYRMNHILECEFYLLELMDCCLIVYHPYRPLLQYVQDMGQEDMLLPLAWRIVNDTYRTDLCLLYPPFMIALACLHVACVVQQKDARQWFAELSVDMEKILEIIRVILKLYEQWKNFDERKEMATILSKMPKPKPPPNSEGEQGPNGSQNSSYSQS
# T2 sequence (P49336 whole entry): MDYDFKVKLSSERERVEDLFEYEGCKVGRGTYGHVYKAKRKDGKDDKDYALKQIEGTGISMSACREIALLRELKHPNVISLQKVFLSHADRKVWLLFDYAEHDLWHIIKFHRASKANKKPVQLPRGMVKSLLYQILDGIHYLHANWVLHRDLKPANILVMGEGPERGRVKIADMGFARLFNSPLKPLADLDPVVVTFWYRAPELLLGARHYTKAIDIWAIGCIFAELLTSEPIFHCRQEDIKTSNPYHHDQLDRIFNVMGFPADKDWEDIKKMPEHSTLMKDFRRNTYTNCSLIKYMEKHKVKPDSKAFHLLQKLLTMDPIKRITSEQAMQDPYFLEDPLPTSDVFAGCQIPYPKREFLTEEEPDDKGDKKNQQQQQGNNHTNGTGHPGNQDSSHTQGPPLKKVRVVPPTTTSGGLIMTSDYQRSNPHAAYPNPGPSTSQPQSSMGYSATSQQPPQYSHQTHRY
# T2 sequence (P24863 whole entry partner): as the sequence (P24863 whole entry partner) above
# T2 sequence (Q93074 whole entry partner): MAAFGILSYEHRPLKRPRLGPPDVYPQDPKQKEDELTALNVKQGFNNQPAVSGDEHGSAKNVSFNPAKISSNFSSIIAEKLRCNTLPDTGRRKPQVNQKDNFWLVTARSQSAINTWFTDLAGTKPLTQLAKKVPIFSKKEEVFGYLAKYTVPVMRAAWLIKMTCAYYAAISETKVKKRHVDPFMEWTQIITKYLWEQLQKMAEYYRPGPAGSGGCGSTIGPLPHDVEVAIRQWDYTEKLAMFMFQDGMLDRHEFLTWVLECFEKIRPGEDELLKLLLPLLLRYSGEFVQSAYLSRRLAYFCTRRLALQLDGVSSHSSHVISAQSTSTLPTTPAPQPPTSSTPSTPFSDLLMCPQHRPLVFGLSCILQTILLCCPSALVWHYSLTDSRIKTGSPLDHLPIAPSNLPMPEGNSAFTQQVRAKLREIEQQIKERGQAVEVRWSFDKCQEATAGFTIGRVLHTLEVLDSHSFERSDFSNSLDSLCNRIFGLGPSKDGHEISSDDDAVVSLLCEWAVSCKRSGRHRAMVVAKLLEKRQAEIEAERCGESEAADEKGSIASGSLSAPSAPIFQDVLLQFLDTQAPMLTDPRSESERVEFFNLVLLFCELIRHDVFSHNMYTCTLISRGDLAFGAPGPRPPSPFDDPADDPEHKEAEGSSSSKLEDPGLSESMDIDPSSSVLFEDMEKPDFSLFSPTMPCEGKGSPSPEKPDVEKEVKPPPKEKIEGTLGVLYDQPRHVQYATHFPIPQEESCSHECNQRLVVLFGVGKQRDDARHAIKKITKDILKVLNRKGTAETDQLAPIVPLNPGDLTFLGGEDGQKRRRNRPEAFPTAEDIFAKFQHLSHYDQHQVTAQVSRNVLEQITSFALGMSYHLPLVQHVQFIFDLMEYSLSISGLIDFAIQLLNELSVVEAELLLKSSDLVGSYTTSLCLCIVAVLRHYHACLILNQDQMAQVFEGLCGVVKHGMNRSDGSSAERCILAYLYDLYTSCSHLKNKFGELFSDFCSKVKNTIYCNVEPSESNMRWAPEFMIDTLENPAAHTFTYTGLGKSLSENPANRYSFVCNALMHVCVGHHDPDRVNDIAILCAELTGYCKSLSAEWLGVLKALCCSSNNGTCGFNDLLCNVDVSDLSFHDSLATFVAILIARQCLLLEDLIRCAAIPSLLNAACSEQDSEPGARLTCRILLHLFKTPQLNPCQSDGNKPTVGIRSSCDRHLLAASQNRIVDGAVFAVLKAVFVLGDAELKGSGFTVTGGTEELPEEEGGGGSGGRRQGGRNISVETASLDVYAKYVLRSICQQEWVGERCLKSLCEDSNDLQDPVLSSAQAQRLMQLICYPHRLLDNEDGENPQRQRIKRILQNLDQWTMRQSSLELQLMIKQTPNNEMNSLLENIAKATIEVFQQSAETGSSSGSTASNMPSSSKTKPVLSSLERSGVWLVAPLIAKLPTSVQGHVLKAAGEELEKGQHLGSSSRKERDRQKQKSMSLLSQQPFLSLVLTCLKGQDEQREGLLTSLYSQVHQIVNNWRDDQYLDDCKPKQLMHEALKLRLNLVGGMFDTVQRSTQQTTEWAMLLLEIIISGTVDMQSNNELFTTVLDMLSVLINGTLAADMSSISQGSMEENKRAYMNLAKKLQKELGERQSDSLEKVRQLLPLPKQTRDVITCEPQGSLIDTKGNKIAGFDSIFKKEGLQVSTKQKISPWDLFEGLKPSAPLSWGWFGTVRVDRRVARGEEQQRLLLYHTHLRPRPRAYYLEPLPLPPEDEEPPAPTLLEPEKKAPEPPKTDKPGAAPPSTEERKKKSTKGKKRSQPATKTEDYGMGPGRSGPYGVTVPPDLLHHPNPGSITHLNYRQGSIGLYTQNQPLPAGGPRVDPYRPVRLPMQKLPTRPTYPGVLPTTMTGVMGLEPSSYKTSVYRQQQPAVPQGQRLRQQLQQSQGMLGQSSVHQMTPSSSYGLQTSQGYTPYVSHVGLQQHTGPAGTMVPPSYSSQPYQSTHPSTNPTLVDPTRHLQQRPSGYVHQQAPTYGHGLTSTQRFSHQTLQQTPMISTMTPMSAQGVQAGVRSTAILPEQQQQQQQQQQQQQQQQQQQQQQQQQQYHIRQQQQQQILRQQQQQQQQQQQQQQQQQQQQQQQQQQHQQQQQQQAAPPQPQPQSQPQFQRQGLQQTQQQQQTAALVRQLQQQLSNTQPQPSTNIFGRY
# CDK8/Cyclin C, sequence (P49336 whole entry): as the sequence (P49336 whole entry) above
# CDK8/Cyclin C, sequence (P24863 whole entry partner): as the sequence (P24863 whole entry partner) above
# Haspin kinase, sequence (Q8TF76 484-798): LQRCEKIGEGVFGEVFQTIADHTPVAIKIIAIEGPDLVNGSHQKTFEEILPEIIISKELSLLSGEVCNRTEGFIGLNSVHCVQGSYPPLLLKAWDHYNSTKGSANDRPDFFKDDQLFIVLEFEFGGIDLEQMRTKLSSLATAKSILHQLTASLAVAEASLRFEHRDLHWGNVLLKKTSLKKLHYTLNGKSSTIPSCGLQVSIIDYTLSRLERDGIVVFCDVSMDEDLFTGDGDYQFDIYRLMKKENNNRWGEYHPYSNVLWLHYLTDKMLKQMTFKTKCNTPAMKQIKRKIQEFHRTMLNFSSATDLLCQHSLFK
# T1 sequence (Q8TF76 whole entry): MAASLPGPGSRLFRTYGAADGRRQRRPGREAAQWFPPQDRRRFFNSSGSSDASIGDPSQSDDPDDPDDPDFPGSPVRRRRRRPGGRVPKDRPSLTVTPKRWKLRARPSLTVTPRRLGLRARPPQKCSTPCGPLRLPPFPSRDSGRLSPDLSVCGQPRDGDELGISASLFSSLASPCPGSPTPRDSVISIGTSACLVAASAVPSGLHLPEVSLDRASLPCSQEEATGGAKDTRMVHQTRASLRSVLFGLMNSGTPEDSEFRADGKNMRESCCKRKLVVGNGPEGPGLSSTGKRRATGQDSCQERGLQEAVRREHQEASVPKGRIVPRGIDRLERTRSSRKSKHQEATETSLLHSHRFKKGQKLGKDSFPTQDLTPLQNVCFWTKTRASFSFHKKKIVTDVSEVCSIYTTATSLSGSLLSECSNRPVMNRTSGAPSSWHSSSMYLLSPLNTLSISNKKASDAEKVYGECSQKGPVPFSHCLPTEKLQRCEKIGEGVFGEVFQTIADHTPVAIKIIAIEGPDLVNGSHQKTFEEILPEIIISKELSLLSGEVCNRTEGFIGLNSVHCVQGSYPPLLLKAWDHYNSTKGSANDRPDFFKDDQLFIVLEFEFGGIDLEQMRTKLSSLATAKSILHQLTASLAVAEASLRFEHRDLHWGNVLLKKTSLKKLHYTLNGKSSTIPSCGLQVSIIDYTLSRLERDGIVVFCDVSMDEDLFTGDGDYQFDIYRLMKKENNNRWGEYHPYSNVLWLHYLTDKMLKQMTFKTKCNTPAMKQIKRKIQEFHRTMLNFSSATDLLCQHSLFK
Compound,EC50 (intracellular HASPIN [1]),IC50 (CDK8/Cyclin C),EC50 (intracellular CDK8 [2]),IC50 (Haspin kinase),GI50 (MV4:11),EC50 (intracellular HASPIN [3]),EC50 (intracellular CDK8 [4]),IC50 (CDK19/Cyclin C),GI50 (MDA-MB-231),GI50 (Molm13),GI50 (SW620),"GI50 (MV4:11; Homo sapiens, MV4-11)","GI50 (MDA-MB-231; Homo sapiens, MDA-MB-231)","GI50 (Molm13; Homo sapiens, MOLM-13)","GI50 (SW620; Homo sapiens, SW-620)"
"NC(=O)c1cc2c([nH]1)-c1ccncc1O[C@@H]2C1CCOCC1 (single isomer, unassigned) [Example 71]",500 to 10000 nM,281 nM,500 to 10000 nM,5760 nM,–,–,–,–,–,–,–,–,–,–,–
COCCn1c(C(N)=O)cc2c1-c1ccncc1OC2(C)C [Example 45],< 500 nM,4.64 nM,< 500 nM,182 nM,–,–,–,11.5 nM,–,–,–,–,–,–,–
CCn1c(C(N)=O)cc2c1-c1ccncc1OC21CCN(CC(F)(F)F)CC1 [Example 79],–,1.11 nM,–,38.6 nM,–,< 500 nM,< 500 nM,3.14 nM,–,–,–,< 1000 nM,1 to 10 µM,< 1000 nM,1 to 10 µM
CCn1c(C(N)=O)cc2c1-c1ccncc1OC21CCOCC1 [Example 82],–,2.19 nM,–,12.8 nM,–,< 500 nM,< 500 nM,4.58 nM,–,–,–,< 1000 nM,1 to 10 µM,< 1000 nM,1 to 10 µM
CCn1c(C(N)=O)cc2c1-c1ccncc1OC21CCNCC1 [Example 91],< 500 nM,301 nM,–,16.5 nM,–,< 500 nM,–,–,–,–,–,< 1000 nM,1 to 10 µM,< 1000 nM,1 to 10 µM

# More lines, now with the values ahead:
EC50 (intracellular HASPIN [1]),IC50 (CDK8/Cyclin C),EC50 (intracellular CDK8 [2]),IC50 (Haspin kinase),GI50 (MV4:11),EC50 (intracellular HASPIN [3]),EC50 (intracellular CDK8 [4]),IC50 (CDK19/Cyclin C),GI50 (MDA-MB-231),GI50 (Molm13),GI50 (SW620),"GI50 (MV4:11; Homo sapiens, MV4-11)","GI50 (MDA-MB-231; Homo sapiens, MDA-MB-231)","GI50 (Molm13; Homo sapiens, MOLM-13)","GI50 (SW620; Homo sapiens, SW-620)",Compound
–,1.36 nM,–,522 nM,< 1000 nM,< 500 nM,< 500 nM,1.41 nM,10 to 100 µM,1000 to 10000 nM,10 to 100 µM,–,–,–,–,"CCn1c(C(N)=O)cc2c1-c1ccncc1O[C@@H]2C1CCCCC1 (single isomer, unassigned) [Example 90]"
–,1.41 nM,–,42.1 nM,–,< 500 nM,< 500 nM,148 nM,–,–,–,< 1000 nM,1 to 10 µM,< 1000 nM,1 to 10 µM,NC(=O)c1cc2c(n1CCF)-c1ccncc1OC21CCCCC1 [Example 84]
